This note sets out measurements from patent US7635722B1, “Chemical induced intracellular hyperthermia” (priority 1998, dated 2009).

Test [1] relates to Kaposi's sarcoma and nontumorous oral mucosa tissues. Briefly: microcalorimetric heat output of biopsy specimens. Also on record: species or system human. As to conditions: biopsy specimens in 30 uM DNP. The text has this: Laboratory studies: EKG, serum electrolytes, renal and liver function tests were normal. Hematocrit was 35.5%, WBC was 9,900 with 81% neutrophils, 4 bands, 11 lymphocytes and 4 monocytes. Platelets were 314,000/mm^3. Viral load was 400,000 copies/ml (Amplicor HIV Monitor test, Roche). A CD4^+ T cell count was quantified by flow cytometry at 250/mm^3. They were antibody positive for hepatitis C. […] Karnofsky score was greater than 70. Normal and tumor tissue biopsies, 3 to 6 mm in diameter, from the oral cavity and anus were obtained. The tissues were equally divided, weighed and placed in 4° C. Ringers lactate solution. Histologically confirmed normal and KS tissues were then subjected to microcalorimetric measurements in a thermal activity monitor (ThermoMetric, Jarfalla, Sweden). Recorded heat output (μW/min) was 8.2-8.5 times greater for the KS sarcoma lesions than nontumorous oral mucosa tissues. Repeat measurements with biopsies specimens in 30 uM DNP increased heat production in tumorous tissues 20.5 times more than nontumorous specimens.

Test [2] has as its system Echinococcus multilocularis. Briefly: DNP with glucagon, hydatid disease of the liver (Example 1). In kind it is in vivo, human. On the procedure: Pretreatment protocol: the patient was given 10 mg diazepam by mouth and dressed into a modified wet suit. The wet suit was cut lengthwise at the arms and legs. Velcro strappings were attached at the cuttings for closure, rapid removal or exposure of the limb(s). After placement of monitoring sensors, they were started on IV fluids of 5% dextrose, 0.5 normal saline with 7 meq K^+, infused at an initial rate of 12 cc/kg/hr. Evaporative heat loss from the head was minimized by a plastic shower cap and towels. A 401AC temperature probe (YSI Incorporated, Yellow Springs, Ohio) was inserted 11 cm. into the rectum. […] A TEEM 100 Metabolic Analysis System (AeroSport Inc., Ann Arbor, Mich.), with a modified face mask and oxygen delivery system (38-40% 02 saturation) for patient comfort and increased accuracy, was attached to the patient. Oxygen consumption (V02), carbon dioxide production (VC02), expired air volume (VE), heart rate (HR), and Kcal of heat produced were measured in 20 second intervals and extrapolated to minute or hourly rates.
Treatment procedure: After baseline recordings of 10 minutes, the required amount of DNP to raise the initial V02 to achieve a temperature in the patient of 40° C. was calculated as described under “DNP dosage required to increase V02”. The patient was given an initial dose of 1 mg/kg of DNP, infused intravenously over a 3 minute period. […]

In the next test the test system is musculocutaneous flap. Briefly: musculocutaneous flap skin survival after DNP. In kind it is in vivo. The settings on record: after induction of heat shock proteins by DNP (FIG. 23). The text has this:
This method of DNP induced preconditioning could be used to decrease intimal thickening and restenosis after angioplasty, improve ischemia/reperfusion injury in organ and tissue transplantation, and improve surgical outcome of procedures that require temporary or prolonged occlusion of arterial blood flow.

The subject of a further test is Kaposi's sarcoma. Briefly: DNP hyperthermia, Kaposi's sarcoma lesions (Example 2). The format is in vivo, human. On the procedure:
Pretreatment protocol: all medications were stopped 2 weeks prior to treatment. The patient refused taking diazepam, placement of a Foley catheter and oxygen face mask. They dressed themself into a dry cold water immersion suit (Stearns, ISS-590I, Universal Adult) designed to prevent heat loss and modified for easy placement of physiologic monitors. Equipment for measurement of heart rate, temperature, carbon dioxide production and Kcal of heat produced were conducted as outlined in Example 1. An oral breathing tube was used to measure V02 from room air. Urine output was measured when the patient voluntarily urinated through a “Texas” catheter (superficial condom tightly fitted around the head of the penis with tubing connected to urine collection bag). The patient was informed that hyperthermia would be administered as tolerated by their stamina and monitored clinical parameters, not to exceed 5 hours, on a daily or every other day basis, for a total of 5 sessions.
Treatment procedure: Baseline reading for 5 minutes established an average V02 of 300 cc/min. An initial dose of 2 mg/kg of DNP was administered over a 2 minute period. V02 increased and stabilized at 15 minutes at 340-380 cc/min. An additional 2 mg/kg DNP infusion was given, the V02 increased and stabilized at 610-630 cc/min. […]

Test [3] relates to peritoneal carcinomatosis, undifferentiated adenocarcinoma. Briefly: DNP with vasopressor and chemotherapy, peritoneal carcinomatosis (Example 4). In kind it is in vivo, human. The text has this: It was elected to treat the patient with hyperthermochemotherapy. Treatment consisted of DNP, and combination chemotherapy with carboplatin, mitomycin, and doxifluridine. An α-1 adrenergic receptor agonist was used to minimize peripheral vascular dilation and heat loss.
Pretreatment protocol: the patient was transfused with three units of packed red blood cells. A Foley catheter was inserted on each day of treatment. They were covered in a water soaked blanket containing a polyethylene lining. A shower cap with towels was used to prevent heat loss from the head. Intravenous lines were placed into both arms with 19 gauge intracaths. EKG, heart rate, rectal thermistor, and V02 monitors were attached. Oxygen supplemented facemask and equipment was attached and data monitored as previously described under Example 1.
Treatment protocol: the patient was given chemotherapy […]. The total doses of carboplatin, and mitomycin were 450 mg and 24 mg IV respectively on day 1 and last day of week 6. Doxifluridine, 600 mg, was orally administered every day for 5 days and repeated the last 5 days of week 6. On the day of DNP infusion, baseline recordings were established for 10 minutes. Mephenteramine sulfate, 30 mg, was given by intramuscular injection. Ten minutes later their heart rate increased to 96 and […] V02 increased from 250 to 320 cc/min. V02, heart rate and blood pressure stabilized after 20 minutes and they were given an initial dose of 1 mg/kg DNP. Additional 0.5 mg/kg infusions of DNP were administered in 3 successive infusions spaced 20 minutes apart. […] The DNP treatment protocol was repeated every fourth day for a period of 6 weeks.

On to `O=[N+]([O-])c1ccc(O)c([N+](=O)[O-])c1` [DNP, 2,4-dinitrophenol], for which the “heat production in tumorous tissues versus nontumorous specimens” value in test [1] is 20.5 times. For the same molecule, in test [2] (2 and 4 weeks post treatment), the “serial imaging of hepatic and bone cysts” value was “hepatic and bone cyst shrinkage with increased density”. In addition, the “magnetic resonance imaging of cysts” value in test [2] (4 months) is “complete cyst disappearance in the liver and bone”. Also, the “musculocutaneous flap skin survival” value in the test on musculocutaneous flap is given as “improved musculocutaneous flap skin survival”. Also, the “anal tumor diminished in size” value in the test with Kaposi's sarcoma (5th and last day of therapy) is “approximately 60%”. Moreover, the “oral and anal KS lesions” value in the test on Kaposi's sarcoma (30 days post-treatment) is “complete regression of both oral and anal KS lesions”. Besides, the “magnetic resonance imaging and echo of the abdomen” value in test [3] (after combined treatments) was “complete resolution of peritoneal metastasis”. In test [3] (end of the sixth week, DNP with carboplatin, mitomycin, doxifluridine), the ascites result is recorded as “resolved”. Further, the survival entry in test [3] (nine and a half months after treatment) is reported as “alive without any evidence of tumor reoccurrence”. In addition, the “serum levels of amylase and all tumor markers” value in test [3] (week 6, combined treatments) is reported as “normal at week 6”.
